{
  "source": "patent EP2698155A1",
  "about": "“Pharmaceutical unit dosage form comprising 4-phenylbutyric acid” (priority 2012, dated 2014)",
  "system": "adenocarcinoma of the prostate",
  "experiment": "Treatment of human patients with prostate cancer (case reports)",
  "format": "in vivo",
  "conditions": "general statement",
  "protocol": "Diseases that can be beneficially influenced by the present dosage form include in particular benign prostate hyperplasy, cancer, leukemias, cystic fibrosis, AIDS, kidney and liver diseases, thalassemia and urea cycle disorders. For example, the treatment of an adenocarcinoma of the prostate can be carried out by administering twice daily, e.g. in the morning and evening, a pharmaceutical tablet formulation containing 250 mg of sodium 4-phenylbutyrate. […] Treatment may be continued for several month or years until a satisfactory effect is observed or the patient is total free of the disease.\nFollowing are descriptions of treatments and test results obtained from human patients.\nBecause of progressive bone pain they underwent bilateral orchiectomy in February 1996. They became free of pain until November 1998 when they again suffered bone pain mainly in their back. They were than treated orally twice daily with 250 mg of sodium phenylbutyrate retard tablets according to Example 1. Four weeks later they were free of pain. They stayed on this medication until June 2001 without any other symptoms of the prostate carcinoma. The PSA and the alkaline phosphatase were always within normal limits.\nThey stay now in complete unmaintained remission for 12 months.\nThis patient presented in March 1997 with a pathological fracture of the 8th thoracic vertebra caused by metastatic destruction. […]",
  "data": [
    {"smiles": "O=C([O-])CCCc1ccccc1.[Na+]", "note": "[sodium 4-phenylbutyrate]", "values": [
      {"measurement": "therapeutic effect (pain)", "setting": "adenocarcinoma of the prostate, tablet with 250 mg twice daily, after treatment of about one month", "result": "pain disappears"},
      {"measurement": "side effects", "setting": "over a long period of treatment", "result": "no side effects"}
    ]}
  ]
}
